Data published in the NIST ThermoML archive (doi:10.1021/je200757a).

Tests used:
[1] = refractive index (Na D-line) (dimensionless); xn = mol fraction of the nth substance listed; conditions: 101 kPa, Liquid
[2] = xn = mol fraction of the nth substance listed; conditions: for viscosity / mass density: 101 kPa, Liquid; for viscosity: Capillary tube (Ostwald / Ubbelohde) method; for mass density: Vibrating tube method

C1C[C@@H]2[C@H]3CC[C@H](C3)[C@@H]2C1 [exo-tetrahydrodicyclopentadiene] + CCCCCCCCCCCC
Conditions	mass density, [2] [kg/m3]	refractive index, [1]	surface tension liquid-gas, [2] [mN/m]	viscosity, [2] [mPa·s]
293.15 K, x2 = 0	935.3	1.4877	31.86	3.077
293.15 K, x2 = 0.0803	913	1.4796	30.13	2.796
293.15 K, x2 = 0.1712	889.9	1.4711	29.15	2.54
293.15 K, x2 = 0.2563	870	1.462	28.63	2.34
293.15 K, x2 = 0.3428	851.4	1.4573	27.95	2.169
293.15 K, x2 = 0.4443	831.4	1.4502	27.32	2.006
293.15 K, x2 = 0.5407	814.1	1.4448	26.32	1.881
293.15 K, x2 = 0.6527	795.7	1.4383	25.94	1.764
293.15 K, x2 = 0.7596	779.8	1.4325	25.67	1.672
293.15 K, x2 = 0.8855	762.7	1.4271	24.51	1.574
298.15 K, x2 = 0	931.4	–	–	2.784
298.15 K, x2 = 0.0803	909.1	–	–	2.535
298.15 K, x2 = 0.1712	886.1	–	–	2.307
298.15 K, x2 = 0.2563	866.2	–	–	2.127
298.15 K, x2 = 0.3428	847.7	–	–	1.974
298.15 K, x2 = 0.4443	827.7	–	–	1.827
298.15 K, x2 = 0.5407	810.4	–	–	1.715
298.15 K, x2 = 0.6527	792	–	–	1.61
298.15 K, x2 = 0.7596	776.1	–	–	1.526
298.15 K, x2 = 0.8855	759.1	–	–	1.438
303.15 K, x2 = 0	927.5	1.4832	31.09	2.525
303.15 K, x2 = 0.0803	905.2	1.4733	29.37	2.308
303.15 K, x2 = 0.1712	882.2	1.4657	28.51	2.104
303.15 K, x2 = 0.2563	862.4	1.4571	27.82	1.944
303.15 K, x2 = 0.3428	843.9	1.4524	26.77	1.807
303.15 K, x2 = 0.4443	824	1.4455	26.51	1.674
303.15 K, x2 = 0.5407	806.6	1.4396	25.84	1.572
303.15 K, x2 = 0.6527	788.3	1.4333	25.68	1.476
303.15 K, x2 = 0.7596	772.5	1.4279	24.58	1.4
303.15 K, x2 = 0.8855	755.5	1.4214	23.82	1.321
313.15 K, x2 = 0	919.6	–	–	2.112
313.15 K, x2 = 0.0803	897.4	–	–	1.939
313.15 K, x2 = 0.1712	874.5	–	–	1.775
313.15 K, x2 = 0.2563	854.7	–	–	1.644
313.15 K, x2 = 0.3428	836.2	–	–	1.532
313.15 K, x2 = 0.4443	816.4	–	–	1.422
313.15 K, x2 = 0.5407	799.2	–	–	1.337
313.15 K, x2 = 0.6527	780.9	–	–	1.257
313.15 K, x2 = 0.7596	765.1	–	–	1.193
313.15 K, x2 = 0.8855	748.1	–	–	1.128
